From patent US20140213647A1, “COMPOUND USEFUL FOR PREVENTING OR TREATING IRRITABLE BOWEL SYNDROME AND COMPOSITION INCLUDING SAME” (SK CHEMICALS CO., LTD., priority 2011, published 2014)

Tests used:
[1] = molecular target: T1, human-derived guanylate cyclase (Homo sapiens, UniProt Q02153); assay: Activity against guanylate cyclase (cGMP production, EIA); assay type: biochemical; settings: Sf9 lysate with human-derived guanylate cyclase, antagonistic activity vs 30 μM sodium nitroprusside, cGMP by EIA
T1 construct: made in house; host or cells: Sf9 insect cells (lysate used)
T1 sequence (Q02153 1-619): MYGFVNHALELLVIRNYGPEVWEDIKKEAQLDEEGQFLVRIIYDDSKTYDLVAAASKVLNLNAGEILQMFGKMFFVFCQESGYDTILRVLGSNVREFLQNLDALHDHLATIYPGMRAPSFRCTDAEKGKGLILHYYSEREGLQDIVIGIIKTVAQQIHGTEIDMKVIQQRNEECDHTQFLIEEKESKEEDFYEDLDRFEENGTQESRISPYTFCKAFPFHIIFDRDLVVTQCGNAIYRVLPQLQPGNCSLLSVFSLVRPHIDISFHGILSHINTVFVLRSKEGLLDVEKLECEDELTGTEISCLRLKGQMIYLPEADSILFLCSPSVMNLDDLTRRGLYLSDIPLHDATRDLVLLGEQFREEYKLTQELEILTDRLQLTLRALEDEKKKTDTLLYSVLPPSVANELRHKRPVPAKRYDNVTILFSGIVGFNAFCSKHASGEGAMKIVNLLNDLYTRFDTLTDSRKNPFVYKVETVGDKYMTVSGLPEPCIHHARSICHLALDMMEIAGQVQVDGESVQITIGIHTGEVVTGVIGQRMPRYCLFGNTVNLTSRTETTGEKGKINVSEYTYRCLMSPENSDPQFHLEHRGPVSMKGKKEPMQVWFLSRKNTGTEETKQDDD
T1 sequence (Q02108 1-690 partner): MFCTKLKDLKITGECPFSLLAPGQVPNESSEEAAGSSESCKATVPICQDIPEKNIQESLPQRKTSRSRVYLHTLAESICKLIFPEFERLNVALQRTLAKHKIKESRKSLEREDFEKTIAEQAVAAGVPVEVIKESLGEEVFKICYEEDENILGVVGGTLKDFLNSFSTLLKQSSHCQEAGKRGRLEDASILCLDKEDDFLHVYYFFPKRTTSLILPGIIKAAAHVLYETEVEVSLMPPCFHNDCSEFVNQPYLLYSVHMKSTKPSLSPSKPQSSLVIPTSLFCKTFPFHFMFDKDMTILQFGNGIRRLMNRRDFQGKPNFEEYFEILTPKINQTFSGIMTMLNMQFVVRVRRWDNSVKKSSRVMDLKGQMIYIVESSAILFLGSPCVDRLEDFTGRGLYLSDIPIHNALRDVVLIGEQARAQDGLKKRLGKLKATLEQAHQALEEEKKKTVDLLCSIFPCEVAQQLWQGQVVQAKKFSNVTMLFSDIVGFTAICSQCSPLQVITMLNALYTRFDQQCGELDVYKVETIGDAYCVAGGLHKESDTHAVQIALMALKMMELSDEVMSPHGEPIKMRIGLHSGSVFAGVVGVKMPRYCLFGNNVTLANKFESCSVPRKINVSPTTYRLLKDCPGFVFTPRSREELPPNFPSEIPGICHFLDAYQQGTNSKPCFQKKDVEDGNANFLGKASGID
Description: Plasmid in which a human-derived guanylate cyclase is expressed was transfected to Sf9 insect cells, followed by proliferation and then lysis. The compound (1, 10, 30, 100, 300 μM) of the present invention dissolved in DMSO and a positive control, ODQ (1H-[1,2,4]oxadiazolo[4,3-a]quinoxalin-1-one, 0.5, 0.1, 0.05, 0.01, 0.005 μM) were added to each well, to which guanylate cyclase (the lysed solution) which is mixed in a modified Tris-HCl buffer was added until its final concentration became to 0.013 μg/ml. After incubating at 37° C. for 20 minutes, 1N HCl was added to end the reaction.
After removing the guanylate cyclase, an amount of cGMP produced from the reaction was subject to quantitative measurement using an EIA kit. The amount of cGMP increases as the guanylate cyclase converting GTP to cGMP is activated. The activation of the guanylate cyclase was calculated based on the assumption that the result of sodium nitroprusside (30 μM), an agonist of the guanylate cyclase was 100%. The antagonistic activity against the guanylate cyclase was calculated based on the assumption that the result when treated only with 30 μM of sodium nitroprusside was 100% compared to when treated with both sodium nitroprusside and a drug.

[2] = molecular target: T2, human-derived motilin receptor (Homo sapiens, UniProt O43193); assay: Inhibiting activity against motilin receptor (radioligand binding); settings: cell membranes expressing human-derived motilin receptor, 25° C. 150 minutes
T2 construct: expressed in transfected cells
Description: Each of 100 μl of a modified Tris-HCl buffer was added to each well, to which the compound (50, 500, 1500, 5000, 15000 μM) of the present invention dissolved in DMSO and a positive control, motilin (2.5, 5, 25, 50, 250 μM) were added in an amount of 5 μl, respectively. Thereto, each of 50 μl of a motilin receptor ligand, […] was added, and each of 100 μl of a modified Tris-HCl buffer having cell membranes in which a human-derived motilin receptor is expressed was added. After incubating at 25° C. for 150 minutes, the resultants were filtered and washed 3 times. The number of cell membranes bound with an isotope was calculated by means of β-ray measurement.

[3] = molecular target: T3, human-derived NK2 receptor (Homo sapiens, UniProt P21452); assay: Inhibiting activity against NK2 receptor ([3H]SR-48968 competitive binding); settings: cell membranes expressing human-derived NK2 receptor, ligand [3H]SR-48968, 25° C. 90 minutes
T3 construct: expressed in transfected cells
T3 sequence (P21452 1-398): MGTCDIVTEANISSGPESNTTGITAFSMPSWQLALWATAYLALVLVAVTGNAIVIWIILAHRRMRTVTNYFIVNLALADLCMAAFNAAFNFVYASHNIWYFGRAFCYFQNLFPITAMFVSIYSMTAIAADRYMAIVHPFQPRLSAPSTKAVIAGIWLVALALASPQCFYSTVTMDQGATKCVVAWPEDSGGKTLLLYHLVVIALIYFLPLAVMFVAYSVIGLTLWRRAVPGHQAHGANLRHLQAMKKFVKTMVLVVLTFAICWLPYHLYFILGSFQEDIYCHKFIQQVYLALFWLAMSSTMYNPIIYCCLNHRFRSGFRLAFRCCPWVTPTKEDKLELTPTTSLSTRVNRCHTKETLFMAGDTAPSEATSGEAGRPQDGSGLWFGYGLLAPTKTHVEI
Description: Each of 100 μl of a modified HEPES buffer was added to each well, to which the compound (50, 500, 1500, 5000, 15000 μM) dissolved in DMSO and a positive control, MEN-10,376 (0.5, 2.5, 5, 25, 50 μM) were added in an amount of 5 μl, respectively. Thereto, each of 50 μl of a NK2 receptor ligand, [3H]SR-48968 was added, and each of 100 μl of a modified HEPES buffer having cell membranes in which a human-derived NK2 receptor is expressed was added. After incubating with stirring (200 rpm) at 25° C. for 90 minutes, the resultants were filtered and washed 3 times.
The number of cell membranes bound with an isotope ([^3H]SR-48968) was calculated by means of […] measurement. At this time, as a test material is strongly bound with the receptor, the ligand [^3H]SR-48968 is not bound and measured values decrease (competitive bonding). The value for the well added with only the ligand was represented as “0% inhibition”, and the well having no ligand, as “100% inhibition’, and the inhibition rate was measured depending on the amount of drug concentration.

[4] = molecular target: T4, human-derived melanocortin MC1 receptor (Homo sapiens, UniProt Q01726); assay: Inhibiting activity against melanocortin MC1 receptor ([125I]NDP-a-MSH binding); settings: cell membranes expressing human-derived melanocortin MC1 receptor, ligand [125I]NDP-a-MSH, 37° C. 120 minutes
T4 construct: expressed in transfected cells
Description: (§1) Each of 100 μl of a modified HEPES-KOH buffer was added to each well, to which the compound (50, 500, 1500, 5000, 15000 μM) of the present invention dissolved in DMSO and a positive control, NDP-a-MSH (0.25, 0.5, 2.5, 5, 25 nM) were added in an amount of 5 μl, respectively. Thereto, each of 50 μl of a melanocortin MC1 receptor ligand, [^125l] NDP-a-MSH was added, and each of 100 μl of a modified Tris-HCl buffer having cell membranes in which a human-derived melanocortin MC1 receptor is expressed was added. After incubating at 37° C. for 120 minutes, the resultants were filtered and washed 3 times. The number of cell membranes bound with an isotope was calculated by means of β-ray measurement.

[5] = tested on: visceral hypersensitivity in colitis-induced rats; assay: Suppressing effect of visceral pain in CRD (colorectal distension) model; assay type: in vivo, Sprague-Dawley male rats; settings: CRD test about 1 hour after dosing
Description: To evaluate the suppressing effect of the separated (6E,12E)-3-hydroxytetradeca-6,12-dien-8,10-diyn-1-yl acetate on the visceral hypersensitivity, a Colorectal Distension (CRD) test that has been often used in the evaluation of drugs for IBS was conducted as follows (see J H. La et al., World J. Gastroenterol. Dec., 9(12): p 2791-2795, 2003).
250 to 300 g of Sprague-Dawley male rats (Charles River) were used for the CRD test. Two rats per one cage were reared in a room of 25° C., humidity 50%, and day-night 12:12 hours of cycle. Rats were freely provided with drink water and food, and were adapted to the room condition for 5 days, followed by inducing colitis. […]
A 2 cm-long rubber balloon was inserted into the rectum of each rat, and was filled with 37° C-warmed water in stages, from 0.1 to 1.0 ml. The appearing pain reactions of rats were recorded. The specific behaviors of CRD test animals were represented with AWR (abdominal withdrawal reflex), which was indirectly and quantitatively analyzed by AWR scores given on each behavior, and the AWR scores were used for identifying the abdominal pain reaction. […]
The presence of visceral hypersensitivity was checked in CRD rats 7 days after inducing colitis. […] Student's t-test (p<0.01 (**) or p<0.001 (***)) was used for statistical approach, and significance relative to the vehicle-administered group was detected. […]

[6] = molecular target: T5, human-derived cannabinoid CB2 receptor (Homo sapiens, UniProt P34972); assay: Inhibiting activity against cannabinoid CB2 receptor ([3H]WIN-55,212-2 binding); settings: cell membranes expressing human-derived cannabinoid CB2 receptor, ligand [3H]WIN-55,212-2, 37° C. 90 minutes
T5 construct: expressed in transfected cells
Description: as §1, with “HEPES” for “HEPES-KOH”, “R(+)-WIN-55, 212-2 (0.05, 0.25,” for “NDP-a-MSH (0.25,”, “5” for “5, 25”, “cannabinoid CB2” for “melanocortin MC1”, “[^3H]WIN-55, 212-2” for “[^125l] NDP-a-MSH”, “90” for “120”

T2 sequence (O43193 whole entry): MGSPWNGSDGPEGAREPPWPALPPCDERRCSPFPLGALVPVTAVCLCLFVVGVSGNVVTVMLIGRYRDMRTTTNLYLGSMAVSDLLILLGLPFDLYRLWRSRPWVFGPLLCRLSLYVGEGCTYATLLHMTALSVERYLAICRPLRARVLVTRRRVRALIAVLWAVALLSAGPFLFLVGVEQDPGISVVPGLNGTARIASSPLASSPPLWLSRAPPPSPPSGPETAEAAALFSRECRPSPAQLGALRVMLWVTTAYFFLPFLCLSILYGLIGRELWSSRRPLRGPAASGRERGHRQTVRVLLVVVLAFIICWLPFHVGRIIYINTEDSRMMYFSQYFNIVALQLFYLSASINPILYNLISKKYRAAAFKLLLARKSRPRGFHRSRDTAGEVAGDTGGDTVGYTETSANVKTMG
T5 sequence (P34972 whole entry): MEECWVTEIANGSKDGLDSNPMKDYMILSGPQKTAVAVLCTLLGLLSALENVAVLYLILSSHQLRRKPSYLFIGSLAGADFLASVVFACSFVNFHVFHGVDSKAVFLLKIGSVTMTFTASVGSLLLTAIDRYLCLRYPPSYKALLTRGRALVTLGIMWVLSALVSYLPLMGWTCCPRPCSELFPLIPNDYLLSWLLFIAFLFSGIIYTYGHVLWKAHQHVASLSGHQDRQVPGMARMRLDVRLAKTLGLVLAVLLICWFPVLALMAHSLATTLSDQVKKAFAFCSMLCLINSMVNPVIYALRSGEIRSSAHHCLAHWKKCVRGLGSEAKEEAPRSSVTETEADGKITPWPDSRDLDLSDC
T4 sequence (Q01726 whole entry): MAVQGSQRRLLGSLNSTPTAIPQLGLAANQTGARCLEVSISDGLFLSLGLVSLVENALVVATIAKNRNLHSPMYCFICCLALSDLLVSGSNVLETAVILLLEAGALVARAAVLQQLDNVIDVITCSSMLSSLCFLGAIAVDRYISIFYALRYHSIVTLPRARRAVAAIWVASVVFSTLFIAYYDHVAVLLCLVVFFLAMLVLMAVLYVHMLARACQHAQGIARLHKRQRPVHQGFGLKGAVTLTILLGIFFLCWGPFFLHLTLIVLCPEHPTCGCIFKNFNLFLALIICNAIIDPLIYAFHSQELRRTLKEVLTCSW

`C/C=C/C#CC#C/C=C/CCC(O)CCOC(C)=O` (stereo not shown) [(6E,12E)-3-hydroxytetradeca-6,12-dien-8,10-diyn-1-yl acetate] gave an IC50 [1] of 18.9 µM, an IC50 [2] of 29.1 µM and an IC50 [3] of 30.6 µM. The IC50 [4] was 133 µM, the “suppressing effect against visceral hypersensitivity relative to the vehicle group (AWR score / AUC, FIG. 2)” value ([5]; 100 mg/kg orally, Student's t-test) was “significant suppressing effect against visceral hypersensitivity” and the “suppressing effect against visceral pain (AWR score / AUC, FIG. 2)” value ([5]; 10, 30 and 100 mg/kg orally) was “suppressing effect against visceral pain occurred in visceral hypersensitivity as its concentration increased”. The IC50 [6] was 45 µM.
